Experimental data reported in patent publication US4713376A, “Dementia-improving and therapeutic agents” (Toyama Chemical Co., Ltd., priority 1985, dated 1987).

Assays:
[1] = Mouse acute toxicity by intraperitoneal injection; settings: in vivo, ip
Excerpt: (§1) Next, among the present compounds [I], α-acetoxy-α-methylaceticacid trimethylammonioethyl ester toluene-4-sulfonate (hereinafter referred to as ALT) and bis(α-acetoxy-α-methylacetic acid trimethylammonioethyl ester) naphthalene-1,5-disulfonate (general name: aclatonium napadisilate) were […] for mouse acute toxicity by intraperitoneal injection as well as for hygroscopicity and stability.

[2] = Hygroscopicity on storage; type: physicochemical; settings: (Increased weight)/(Original weight) × 100; 10 days, 30° C., relative humidity 55%
Protocol: as §1
(§2) Stored for 10 days at room temperature (30° C.) at a relative
*1 Hygroscopicity (%) = (Increased weight)/(Original weight) × 100

[3] = type: physicochemical; settings: 10 days, relative humidity 55%; for Appearance: room temperature (30° C.); for Decomposition percentage: hydroxylamine method, 30° C.
Protocol: as §1, §2
*2 Measured in accordance with the hydroxylamine method for ester (Jikken
Kagaku Koza, Vol. 24 Seibutsu Kagaku II, p 253 to 255, Maruzen).
Decomposition percentage (%) = [1 - (absorbance of test
sample)/(absorbance of standard solution)] × 100

[4] = system: senile dementia of Alzheimer's type; assay: Clinical cases, overall improvement degree and neuropsychiatric symptoms, senile dementia of Alzheimer's type; type: in vivo, patients
Protocol: (§3) The degree of dementia was diagnosed in patients on the basis of DSM-III criteria with reference to the neuropsychiatric symptoms and findings of the CT scan of the head regions.
(§4) The overall improvement degree of the present drug was evaluated from the neuropsychiatric symptoms, scores of activity of daily living and Hasegawa's rating scales.
Case three senile dementia of Alzheimer's type (Overall severity: Marked high degree)
They began to have a forgetfulness from approx. 4 years ago, and became spiritless and became unable to work, and became not to express their feeling, and had wanderling impulsion. The cerebral atrophy was generally noted by the finding of CT scan of head regions at the admission.
Case four senile dementia of Alzheimer's type (Overall severity: Marked high degree)
They had occasionally a forgetfulness from approx. 10 years ago, and became unable to do agricultural work from approx. 4 years ago. The diffuse cerebral atrophy was noted by the finding of CT scan of head regions at the admission.
Case five senile dementia of Alzheimer's type (Overall severity: Moderate degree)
They began to have a forgetfulness from approx. 2 years ago, and became unable to do household affairs from 1 year ago, and became unable to distinguish their familial faces. The cerebral atrophy and enlargement of cerebral ventricle were noted by the finding of CT scan of head regions at the admission. The treatment was changed to the administration of 300 mg/day of the present drug because the efficacy was ineffective with other cerebral metabolic improvement drugs and cerebral-vasodilators.
Case one senile dementia of Alzheimer's type (overall severity: Moderate degree)
They began to have a forgetfulness and spiritlessness after operation of fracture of neck of femur from 10 years ago. The disorientation was strongly noted from 2-3 years ago. The cerebral atrophy and enlargement of cerebral ventricle were noted by the finding of CT scan of head regions at the admission. The efficacy was ineffective with other various drugs than the present drug.

[5] = system: Alzheimer's disease; assay: Clinical case, overall improvement degree and neuropsychiatric symptoms, Alzheimer's disease; type: in vivo, patients
Protocol: as §3, §4
Case two a person, Alzheimer's disease (Overall severity: Moderate degree)
They became occasionally aware of slight change of character from 8 years ago, and they lived without specific changes, but they became spiritless and not to express their feeling from 3 years ago. At the admission, they could not work entirely and was spiritless, and had contact disturbance with other patients, and decrease of memory power and judgement power were noted. […] The atrophy of anterior lobe was remarkably noted at the finding of CT scan of head regions at the admission.

[6] = system: patients; assay: Side effects in the clinical cases; type: in vivo; settings: all of the above clinical cases
[7] = system: dementia; assay: Neuropsychiatric symptoms accompanying dementia and cognitive function, summary of clinical cases; type: in vivo, patients
Protocol: as §3, §4

[8] = Transference into brain and stimulation of cerebral metabolism; settings: in vivo

In the case of `CC(=O)OC(C)C(=O)OCC[N+](C)(C)C.Cc1ccc(S(=O)(=O)[O-])cc1` (stereo not drawn) [ALT, α-acetoxy-α-methylaceticacid trimethylammonioethyl ester toluene-4-sulfonate], the LD50 [1] is reported as 657 mg/kg, the Hygroscopicity [2] is reported as 0.6% and the Appearance [3] is reported as “No change”. It also gave a Decomposition percentage [3] of 0.5%.
With `CC(=O)OC(C)C(=O)OCC[N+](C)(C)C` (stereo not drawn) [Aclatonium napadisilate, bis(α-acetoxy-α-methylacetic acid trimethylammonioethyl ester) naphthalene-1,5-disulfonate] the “neuropsychiatric symptoms and activity of daily living” value ([4]; Clinical Case 1, 300 mg/day, 2nd week) was “they could gait to outside of room at the 2nd week, and their movement behavior was improved, and spontaneousness increased and feeling became clear”, the overall improvement degree ([4]; Clinical Case 1, Marked high degree, 300 mg/day) was “improvement” and the “neuropsychiatric symptoms (spontaneousness, conversation)” value ([4]; Clinical Case 2) was “spontaneousness increased, and conversation with other patients increased, and they had favorable communication and became fortunate”. For the same compound, the overall improvement degree ([4]; Clinical Case 2, Marked high degree) was “slight improvement”, the “decrease of spontaneousness and disturbance of emotion” value ([4]; Clinical Case 3, 300 mg/day) was “improved” and the intellectual function ([4]; Clinical Case 3, 300 mg/day) was “No changes”. The “activity of daily living and expression” value ([4]; Clinical Case 3, 300 mg/day, approx. 2nd week after administration) was “they became able to sit and gait, and eat food by themself and expression became clear”, the overall improvement degree ([4]; Clinical Case 3, Moderate degree, 300 mg/day) was “slight improvement” and the “conversation frequency and activity of daily living” value ([4]; Clinical Case 4, 300 mg/day, from the 2nd week) was “their conversation frequency with other patients increased and they became able to go out from their room and occasionally go to toilet”. The overall improvement degree ([4]; Clinical Case 4, Moderate degree, 300 mg/day) was “slight improvement”, the defecation ([5]; Clinical Case 5) was “defecation became smooth” and the “movement frequency and spontaneousness” value ([5]; Clinical Case 5, 4th week) was “increase of movement frequency and improvement of decrease of spontaneousness”. For the same compound, the overall improvement degree ([5]; Clinical Case 5, Moderate degree) was “improvement”, the side effect [6] was “no side effect” and the “effect on cognitive function” value ([7]; clinical cases) was “has not been confirmed at this time”. For the same compound, the “improvement of neuropsychiatric symptoms accompanying dementia” value ([7]; clinical cases) was “effective”, the clinical effect ([7]; human, in vivo) was “confirmed” and the “effect on severe dementia” value ([7]; human, in vivo) was “confirmed”. For the same compound, the cerebral metabolism [8] was “stimulated”, the transference into brain [8] was “found” and the LD50 [1] was 636 mg/kg. For the same compound, the Hygroscopicity [2] was 0.1%, the Appearance [3] was “No change” and the Decomposition percentage [3] was 0.2%.
